According to patent publication US11596615B2, “Compositions and methods for treatment of insulin resistance” (Temple University—Of The Commonwealth System Of Higher …, priority 2016, dated 2023):
Where a name gives a salt, the structure may show the parent alone.

Experiments:
3T3-L1 adipocytes = assay: Restoring glucose uptake in insulin-stimulated 3T3-L1 cells exposed to 4-HNE and H2O2 (FIG. 13); assay type: cell-based, mouse; conditions: 10 μM pretreatment 12 hours, then 4HNE and H2O2 4 hours
Protocol: Insulin-stimulated 3T3-L1 adipocytes were pretreated with the drug (S)-2-amino-6-((3-aminopropyl)amino)hexanoic acid dihydrochloride (10 μM) for 12 hours followed by exposure to 4HNE and H2O2 for an additional 4 hours. The amounts of glucose taken up by the 3T3-L1 adipocytes were measured by the MRM methods described above. The results in FIG. 13 show the effect of the drug in restoring glucose uptake in insulin-stimulated 3T3-L1 cells exposed to 4-HNE and H2O2: Control cells, no insulin (C− No Ins); control cells, with insulin (C+ Ins); 4HNE+H2O2-treated cells (4HNE/H2O2) and cells treated with drug+4HNE+H2O2 (“APL”).
Insulin-stimulated 3T3-L1 adipocytes were pretreated with the drug (S)-2-amino-5-((6-aminohexyl)amino)pentanoic acid dihydrochloride (10 μM) for 12 hours followed by exposure to 4HNE and H2O2 for an additional 4 hours. The amounts of glucose taken up by the 3T3-L1 adipocytes were measured by the MRM methods described above. FIG. 13 includes the results: cells treated with (S)-2-amino-5-((6-aminohexyl)amino)pentanoic acid trihydrochloride (MC-180351).
Insulin-stimulated 3T3-L1 adipocytes were pretreated with the drug (S)-2-amino-5-(([…])amino)pentanoic acid dihydrochloride (10 μM) for 12 hours followed by exposure to 4HNE and H2O2 for an additional 4 hours. The amounts of glucose taken up by the 3T3-L1 adipocytes were measured by the MRM methods described above. FIG. 13 includes the results: cells treated with (S)-2-amino-5-((5-aminopentyl)amino)pentanoic acid trihydrochloride (MC-180352).

[1] = Solution stability in mouse plasma; assay type: in vitro ADME, mouse (male C57BL/6); conditions: male, C57BL/6; 1 μM in mouse plasma, 37° C.
Protocol: The stability of the title compound was tested in the following media, in the following concentrations: (i) 1 μM in mouse (male C57BL/6) plasma, (ii) 1 μM in PBS (with Ca and Mg) (control treatment); (iii) 5 μM in stimulated gastric fluid (SGF; 0.2% NaCl; 84 mM HCl; 0.32% pepsin; pH 1.2); (iv) 5 μM in stimulated intestinal fluid (SIF; 50 mM KP, pH 6.8; 10 mg/ml pancreatin); and (v) 5 μM in PBS (+Ca and Mg) (control treatment). The results are as follows: (i) 1 μM in mouse plasma, t1/2>6 hr at 37° C.; (ii) 1 μM in PBS, t1/2>6 hr at 37° C.; (iii) 5 μM in SGF, t1/2>3 hrs at 37° C.; (iv) 5 μM in SIF, t1/2>3 hrs at 37° C.; and (v) 5 μM in PBS, t1/2>3 hr at 37° C. The “t1/2” values are the maximum time employed for the respective assays.

[2] = test system: mice fed high fat diet (HFD); assay: Blood glucose after glucose administration in overnourished mice (Example 10); assay type: in vivo, C57BL/6J mice; conditions: 10 μg/mL in drinking water, FIG. 7
Source text: Twenty-four C57BL/6J mice 8-weeks old were fed with either regular CHOW diet or high fat diet (HFD, 60% of fat content). Eight animals received CHOW diet for one week, 8 animals had been fed already with HFD for two weeks and were continuously fed with the same diet for one more week (for a total of 3 weeks feeding) and 8 animals started HFD at the time of the animal selection (2 weeks feeding). Each group was divided in half, 4 animals received regular water and the other 4 received the (S)-2-amino-6-((3-aminopropyl)amino)hexanoic acid dihydrochloride (10 μg/mL) dissolved in the water. Animals were fasted for 5 hours, weighed, and blood glucose measured by tail clipping. In addition, glucose (1 mg/g of body weight) was administered intraperitoneally. Additional glucose levels were measured at 20, 40 and 80 minutes after glucose administration. Heavy glucose was also administered intraperitoneally to further measure glucose uptake from tissues. Glucose level was taken again at 140 minutes. Animals were euthanized under anesthesia (isoflurane), and blood, liver, fat and muscle were collected.

[3] = Intravenous and oral pharmacokinetic study in mice; assay type: in vivo; conditions: for VSS: dihydrochloride
Protocol: A pharmacokinetic study was conducted with mice (Charles river) (N=3). The animals had free access to water and standard laboratory chow under a controlled 12 hour light-dark cycle. After at least one week of an acclimation period, the mice were administrated a dose of 5 mg/kg of the title compound ((S))-2-amino-6-((3-aminopropyl)amino)hexanoic acid dihydrochloride) intravenously or 10 mg/kg orally. For both intravenous and oral administration, the compound was dissolved in saline. After intravenous administration, blood samples were collected at 10 min, 30 min, 1, 2, 4, 8 and 24 hours. For oral gavage, blood samples were collected at 15 min, 30 min 1, 2, 4, 8 and 24 hours. The blood samples were collected in polythene tubes with heparin sodium 100 unit/mL and centrifuged at 6000×g for 10 min to obtain plasma, which was stored at −20° C. until analysis.
The title compound concentration in mouse plasma was quantitated using an LC/MS/MS (API 4000, AB SCIEX). Briefly, 50 μl mouse plasma was added to 100 μl acetonitrile with internal standard (Diltiazem 10 ng/ml). The mixture was vortexed and centrifuged, and 5 μl supernatant was injected into LC/MS/MS for analysis. The separation was performed on a Waters C18 column (2.1×50 mm, […] particle size). The mobile phase consisted of 0.2% pentafluoropropionic acid in water:acetonitrile by gradient elution. A Sciex API 4000 mass spectroscopy system equipped with an electrospray source in the positive-ion multiple reaction monitoring (MRM) mode was used for detection. The MRM transitions monitored for the title compound and diltiazem were m/z 204.4/84.2 and m/z 415/178, respectively. The retention time is 12.5 min for (S)-2-amino-6-((3-aminopropyl)amino)hexanoic acid and 14 min for diltiazem. The quantitation ranged from 25 to 1000 ng/ml.

With `NCCCNCCCC[C@H](N)C(=O)O` [APL, (S)-2-amino-6-((3-aminopropyl)amino)hexanoic acid dihydrochloride] the GLUT4 carbonylations (3T3-L1 adipocytes) was “reduce GLUT4 carbonylations”, the “glucose uptake impairment induced by 4-HNE and H2O2” value (3T3-L1 adipocytes; FIG. 13) was “prevent glucose uptake impairment induced by 4-HNE and H2O2” and the half-life at 1 μM [1] was over 6 h. For the same compound, the “glucose uptake impairment induced by overnutrition (blood glucose levels)” value [2] was “effective in counteracting glucose uptake impairment induced by overnutrition”, the VSS ([3]; IV, 5 mg/kg) was 0.4 L/kg and the AUCtot ([3]; IV, 5 mg/kg, plasma) was 4.72 μg*hr/m. The CL ([3]; PO, 10 mg/kg) was 0.285 L/h, the VSS ([3]; PO, 10 mg/kg, listed as (S)-2-amino-6-((3-aminopropyl)amino)hexanoic acid dihydrochloride) was 2.12 L/kg and the VSS ([3]; PO, 10 mg/kg, listed as (S)-2-amino-6-((3-aminopropyl)amino)hexanoic acid) was 2.1 L/kg. For the same compound, the AUCtot ([3]; PO, 10 mg/kg, plasma) was 10.45 μg*hr/m, the Cmax ([3]; mouse, IV, 5 mg/kg, plasma) was 8360 ng/mL and the Cmax ([3]; mouse, PO, 10 mg/kg, plasma) was 1440 ng/mL. It also gave a clearance ([3]; mouse, plasma, IV, 5 mg/kg) of 5.17 mL/min, a half-life ([3]; mouse, plasma, IV, 5 mg/kg) of 2.53 h and a Tmax ([3]; mouse, plasma, PO, 10 mg/kg) of 3.33 h. The half-life ([3]; mouse, plasma, PO, 10 mg/kg) was 3.25 h, the Vd ([3]; mouse, plasma, iv, 5 mg/kg, IV, 5 mg/kg, read-out: VSS) was 0.414 L/kg and the bioavailability ([3]; mouse, plasma, oral, 10 mg/kg, PO 10 mg/kg vs IV 5 mg/kg) was about 100%.
